Results taken from patent US20220265659A1, “METHODS AND COMPOSITIONS FOR TREATING PAX6-DEFICIENCY RELATED DISEASE” (INSERM (INSTITUT NATIONAL DE LA SANTÉ ET DE AL RECHERCHE …, priority 2019, published 2022).

Tests used:
[1] = test system: mutated limbal stem cells (mut-LSCs); assay: In vitro migration test on IBIDI chambers; format: cell-based, Human; details: for rescue of cell migration: mutated limbal stem cells
Method: (§1) Cells and culture conditions: Human mutated limbal epithelial stem cells (mut-LSCs) were obtained by genome editing (Crispr/cas9) of primary limbal stem cells, as described in Roux et al. (Roux, 2018 Stem cells). mut-LSCs and WT controls were cultured, as described earlier (Roux, 2018 Stem cells), in Keratinocyte serum-free medium (K-sfm) (Gibco™, Life Technologies), supplemented with 25 μg/mL Bovine Pituitary Extract (BPE; Gibco™, Life Technologies), 0.2 ng/mL Epidermal Growth Factor (EGF, Peprotech), 0.4 mM CaCl2, 2 mM Glutamine (Gibco™, Life Technologies) and 100 U/mL Penicillin/Streptomicin (Gibco™, Life Technologies). Routine subcultures were obtained by detaching cells with StemPro™ Accutase™ Cell Dissociation Reagent (Gibco™, Life Technologies) and replating at 2,000 cells/cm^2 (T-LSCs) or 3,000 cells/cm^2 (PAX6^+/− T-LSCs). All cells were negative for mycoplasma contamination (monthly tested).
In vitro migration test: WT and mut-LSCs were seeded into culture-inserts 2 well at 25,000 cells per well in 6-well plates (IBIDI®). […] Sixteen hours after plating, the inserts were removed creating a gap of 500 μm between cells. Patches were overlaid with culture medium and closure of the gap was monitored for 10 h, taking pictures at regular time intervals. Gap width was measured using ImageJ 1.49 software (NIH). Results are presented as percent of gap width normalized at 100% at t=0 h.

Mut-LSCs = assay: Rescue experiments: compound added to the culture medium of Mut-LSCs (cell toxicity, optimal concentration); format: cell-based, Human; details: qRT-PCR, cell migration and cell adhesion
Method: as §1
(§2) Rescue experiments: Mut-LSCs were treated with each compound (Duloxetine, Ritanserine and Topotecan) directly added into the culture medium from 0.5 μg/mL to 4 μg/mL. No cell toxicity has been observed up to 10 μg/mL. The optimal concentration for each experiment (qRT-PCR, cell migration and cell adhesion) was 0.5 μg/mL. As positive control, 2 μg/mL recombinant PAX6 protein coupled with an 11R-tag (recPAX6, LD Biopharma Inc) was added, as described elsewhere (Roux et al. 2018 Stem cells).

[2] = test system: PAX6-target gene expression; assay: qRT-PCR analysis of PAX6-target gene expression in rescue experiments; format: cell-based, Human; details: mutated limbal stem cells
Method: as §1, §2
qRT-PCR analysis: Cells were treated for 10 h with either compound or recPAX6 for rescue experiments, and harvested as a dry pellet. RNA was then extracted using RNEasy Mini kit (Qiagen) and cDNA were synthetized from 1 μg RNA using iScript cDNA synthesis kit (Bio-Rad). Quantitative PCR were performed in triplicate using […] SYBR Green PCR Master Mix (Absource Biotools). Expression of each gene was calculated using the 2^−ΔΔCt method. Results are presented as fold change normalized to B2M house-keeping gene and relative to control (treated with protein buffer or untreated) T-LSCs. Specific primers sequences used are listed in Suppl.

PAX6 protein = assay: Western blot analysis of PAX6 protein production; format: cell-based, Human; set-up: rescue of PAX6 haploinsufficiency in vitro: unit of the concentration uncertain; details: for rescue of the production of endogenous PAX6 protein: mutated limbal stem cells
Method: as §1
[…] No cell toxicity has been observed up to 10 μg/mL. […] As positive control, 2 μg/mL recombinant PAX6 protein coupled with an 11R-tag (recPAX6, LD Biopharma Inc) was added, as described elsewhere (Roux et al. 2018 Stem cells).
Western blot analysis: Cells were harvested as a dry pellet, […] recPAX6 protein or its buffer for rescue experiments, lysed in RIPA buffer supplemented with Protease and Phosphatase Inhibitor Cocktail EDTA-Free (Roche) for 15 min on ice and centrifuged for 15 min at 4° C. at 15,000×g. Protein concentration was measured using Pierce BCA Protein Assay kit (Thermo Fisher Scientific) following manufacturer instructions. Thirty micrograms of total protein or 10 ng of recPAX6 protein were loaded on a SDS-PAGE gel (10%), transferred to nitrocellulose membranes using semi-dry method. Membranes were pre-stripped using Re-Blot Plus Strong solution (EMD Millipore) for 15 min, blocked twice for 5 min in 5% milk solution and incubated in primary antibody (PAX6, ab2237, Millipore, 1/1,000) overnight at 4° C. After 3 washing of 10 min in TBS with 0.2% Tween (TBS-T), membranes were incubated for 1 h with secondary antibody (Goat anti-rabbit HRP, BD Pharmingen) diluted in TBS-T 5% milk solution at 1/1,000. Proteins were visualized using chemiluminescence detection (Clarity™ Western ECL Substrate, Bio-Rad) on a gel imaging system (ImageQuant LAS 4000). Membranes were stripped again, incubated 90 min at room temperature with ACTIN (sc1615, 1/500, Santa Cruz) antibody diluted in TBS-T 5% milk, washed 3×10 min in TBS-T and incubated for 1 h in secondary antibody (Rabbit anti-goat HRP, 1/20,000, Jackson ImmunoResearch) at room temperature before revelation. Signal quantifications were made using ImageJ 1.49 software (NIH). Results are presented after ACTIN normalization.

[3] = test system: limbal stem cells (mut-LSC); details: mut-LSC with a nonsense mutation found in patients; cited from earlier work
PAX6 = assay: qRT-PCR analysis for PAX6 expression with amplicon sequencing; format: cell-based, Human
Method: as §1, with “T-LSCs).” for “T-LSCs). All cells were negative for mycoplasma contamination (monthly tested).”
qRT-PCR analysis: Cells were treated for 10 h with either compound or recPAX6 for rescue experiments, and harvested as a dry pellet. RNA was then extracted using RNEasy Mini kit (Qiagen) and cDNA were synthetized from 1 μg RNA using iScript cDNA synthesis kit (Bio-Rad). Quantitative PCR were performed in triplicate using […] SYBR Green PCR Master Mix (Absource Biotools). Expression of each gene was calculated using the 2^−ΔΔCt method. […] Specific primers sequences used are listed in Suppl.

Molecule	rescue of cell migration [1]	optimal concentration for each experiment (Mut-LSCs)	rescue of PAX6-target gene expression [2]	PAX6 protein production (PAX6 protein; FIG. 5: W mutant limbal cells)	rescue of the production of endogenous PAX6 protein (PAX6 protein)	rescue of altered PAX6 target gene expression, cell adhesion, cell migration and proliferation [3]	PAX6 protein production (PAX6 protein; FIG. 4: mutated LT (W) cells, western blot, 0.5, 1 or 5 mM)	rescue of migration of mutated limbal cells ([1]; FIG. 2: mut-LT, 0.5 µg/mL, 2 h before migration start, IBIDI chambers)	amplification of the mutated allele (amplicons sequenced) (PAX6; FIG. 3: mut-LSCs + Topotecan)	WT allele transcription (PAX6 expression by qRT-PCR) (PAX6; FIG. 3: mutated cells (mut-LSC))	PAX6 expression by qRT-PCR (PAX6; FIG. 3: treated WT-LSCs (normal LSCs))	rescue of PAX6 gene expression at the RNA level (PAX6; mutated limbal stem cells)	rescue of PAX6 haploinsufficiency in vitro (PAX6 protein; FIG. 1: mut-LT limbal stem cells, 0.5 (unit uncertain), 10 h, qRT-PCR for PAX6-target gene expression (A), western blot for PAX6 protein (B))
CNCC[C@H](Oc1cccc2ccccc12)c1cccs1 [Duloxetine, duloxetine]	able to rescue	0.5 µg/mL	able to rescue	rescued	able to rescue								
recombinant PAX6 protein: recombinant PAX6 protein coupled with an 11R-tag (recPAX6, LD Biopharma Inc), positive control						rescued							
Cc1nc2sccn2c(=O)c1CCN1CCC(=C(c2ccc(F)cc2)c2ccc(F)cc2)CC1 [Ritanserine, ritanserin]	able to rescue	0.5 µg/mL	able to rescue		able to rescue		rescued						
CC[C@@]1(O)C(=O)OCc2c1cc1n(c2=O)Cc2cc3c(CN(C)C)c(O)ccc3nc2-1 [Topotecan, topotecan]	able to rescue	0.5 µg/mL	able to rescue		able to rescue			can rescue	did not identified any amplification	activates	not enhanced	able to rescue	can rescue
